Literature values in patent publication US7625410B2, “Stent device and method” (Boston Scientific Scimed, Inc., priority 2001, dated 2009).

Key:
[1] = test system: human and rat aortic smooth muscle cells and endothelial cell proliferation
[2] = not given; remark: listed apart in the source

With `C=CC[C@@H]1/C=C(\C)C[C@H](C)C[C@H](OC)[C@H]2O[C@@](O)(C(=O)C(=O)N3CCCC[C@H]3C(=O)O[C@H](/C(C)=C/[C@@H]3CC[C@@H](O)[C@H](OC)C3)[C@H](C)[C@@H](O)CC1=O)[C@H](C)C[C@@H]2OC` [tacrolimus] as the molecule, how does the “antiproliferative properties on vascular cells” value ([1]; human and rat aortic smooth muscle cells and endothelial cells) read?
The value was “very modest antiproliferative properties”.

What about the “transition to the secretory smooth muscle cell type” value ([1]; smooth muscle cells, type responsible for the restenosis build up) of the same molecule?
The value was “practically totally inhibited”.

And the “solubility in organic solvents” value (chloroform, ethylacetate acetone, and ethanol)?
The value was “soluble”.

What about the solubility in water (water) of the same molecule?
The solubility in water was “practically insoluble in water”.

What about the halflife ([2]; assumed value used for the estimate of systemic dosage) of the same molecule?
Its halflife is 12 h.

And the “distribution in the blood” value ([2]; blood)?
Its value is “primarily intracellular in red blood cells”.

What about the “binding in the plasma” value ([2]; plasma) of the same molecule?
Its value is “bound to α-1 sour glycoproteins and albumins”.
